The assay has as its system T1, HpeCBA.
T1 construct: gene hpeB; hpeCBA co-expressed in Rhodococcus jostii RHA1; untagged complex, ammonium sulfate and anion exchange; with Phosphophenylethanone carboxylase, biotin carboxylase; Phosphophenylethanone carboxylase, biotin carboxyl carrier protein
Briefly: coupled spectrophotometric assay (pyruvate kinase / lactate dehydrogenase, NADH oxidation). It counts as biochemical, Rhodococcus rhodochrous. The settings on record: 20 mM MOPS (I = 0.1 M), pH 7.5, 25 °C; ATP, Mg2+, HCO3-. An excerpt: coupled spectrophotometric assay (pyruvate kinase / lactate dehydrogenase, NADH oxidation) on HpeCBA

Structures are written as SMILES.

One may read the Km as the concentration of substrate that gives half-maximal velocity. With `COc1cc(C(C)=O)ccc1OP(=O)(O)O` [PAV], the Km is 560 µM.

On to `CC(=O)c1ccc(OP(=O)(O)O)cc1` [PAP], for which the Km stood at 69 µM.

The values are drawn from PMC9618137, “Bacterial catabolism of acetovanillone, a lignin-derived compound” (Proceedings of the National Academy of Sciences of the …, 2022).
